Experimental data reported in ChEMBL document CHEMBL4715808, “Discovery of (1S,2R,3S,4S,5R,6R)-2-Amino-3-[(3,4-difluorophenyl)sulfanylmethyl]-4-hydroxy-bicyclo[3.1.0]hexane-2,6-dicarboxylic Acid Hydrochloride (LY3020371·HCl): A Potent, Metabotropic Glutamate 2/3 Receptor Antagonist with Antidepressant-Like Activity” (J Med Chem, 2016).

How the values were obtained:
[1] = target: T1, Metabotropic glutamate receptor 3 (Homo sapiens, UniProt Q14832); experiment: Antagonist activity at human recombinant mGlu3 receptor stably expressed in golden hamster AV12 cells co-expressing rat EAAT1 assessed as reduction in DCG IV-induced inhibition of forskolin-stimulated cAMP accumulation preincubated for 20 mins followed by incubation with cAMP-d2 conjugate and anti-cAMP cryptate for 1 hr by HTRF assay; format: functional, cell-based
[2] = target: T1, Metabotropic glutamate receptor 3; experiment: Displacement of [3H]-LY459477 from recombinant human mGlu3 receptor expressed in hamster AV12 cell membranes co-expressing rat EAAT1 incubated for 90 mins by top count scintillation method; design: species or system Cell membrane
[3] = target: T2, Metabotropic glutamate receptor 2 (Homo sapiens, UniProt Q14416)
Description: Antagonist activity at human recombinant mGlu2 receptor stably expressed in golden hamster AV12 cells co-expressing rat EAAT1 assessed as reduction in DCG IV-induced inhibition of forskolin-stimulated cAMP accumulation preincubated for 20 mins followed by incubation with cAMP-d2 conjugate and anti-cAMP cryptate for 1 hr by HTRF assay

[4] = target: T2, Metabotropic glutamate receptor 2; remark: listed apart in the source
Description: Displacement of [3H]-LY459477 from recombinant human mGlu2 receptor expressed in hamster AV12 cell membranes co-expressing rat EAAT1 incubated for 90 mins by top count scintillation method

[5] = target: T2, Metabotropic glutamate receptor 2; experiment: […] at mGlu2 (unknown origin)
[6] = target: T1, Metabotropic glutamate receptor 3; experiment: […] at mGlu3 (unknown origin)

T2 sequence (Q14416 whole entry): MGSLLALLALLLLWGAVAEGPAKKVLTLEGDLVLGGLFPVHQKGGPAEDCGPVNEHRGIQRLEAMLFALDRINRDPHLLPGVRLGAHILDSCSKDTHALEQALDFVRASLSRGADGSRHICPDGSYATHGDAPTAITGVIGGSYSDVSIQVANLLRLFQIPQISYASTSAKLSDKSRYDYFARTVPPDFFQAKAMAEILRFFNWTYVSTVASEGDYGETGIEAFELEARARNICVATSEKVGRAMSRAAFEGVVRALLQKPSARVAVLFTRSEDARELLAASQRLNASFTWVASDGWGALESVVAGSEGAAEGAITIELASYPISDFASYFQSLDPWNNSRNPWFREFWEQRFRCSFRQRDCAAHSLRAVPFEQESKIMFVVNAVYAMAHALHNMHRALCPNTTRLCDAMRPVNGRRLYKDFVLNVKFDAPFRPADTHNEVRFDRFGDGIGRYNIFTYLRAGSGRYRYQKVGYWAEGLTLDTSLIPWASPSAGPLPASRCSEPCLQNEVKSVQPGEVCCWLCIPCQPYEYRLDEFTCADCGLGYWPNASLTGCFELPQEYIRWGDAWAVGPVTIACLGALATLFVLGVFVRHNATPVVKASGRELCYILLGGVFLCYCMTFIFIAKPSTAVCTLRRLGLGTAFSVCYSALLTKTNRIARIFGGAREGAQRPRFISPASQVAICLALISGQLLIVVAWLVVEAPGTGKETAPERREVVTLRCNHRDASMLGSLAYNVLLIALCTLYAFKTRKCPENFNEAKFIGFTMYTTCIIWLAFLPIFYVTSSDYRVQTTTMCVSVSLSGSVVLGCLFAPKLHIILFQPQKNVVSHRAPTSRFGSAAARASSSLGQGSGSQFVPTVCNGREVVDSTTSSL
T1 sequence (Q14832 whole entry): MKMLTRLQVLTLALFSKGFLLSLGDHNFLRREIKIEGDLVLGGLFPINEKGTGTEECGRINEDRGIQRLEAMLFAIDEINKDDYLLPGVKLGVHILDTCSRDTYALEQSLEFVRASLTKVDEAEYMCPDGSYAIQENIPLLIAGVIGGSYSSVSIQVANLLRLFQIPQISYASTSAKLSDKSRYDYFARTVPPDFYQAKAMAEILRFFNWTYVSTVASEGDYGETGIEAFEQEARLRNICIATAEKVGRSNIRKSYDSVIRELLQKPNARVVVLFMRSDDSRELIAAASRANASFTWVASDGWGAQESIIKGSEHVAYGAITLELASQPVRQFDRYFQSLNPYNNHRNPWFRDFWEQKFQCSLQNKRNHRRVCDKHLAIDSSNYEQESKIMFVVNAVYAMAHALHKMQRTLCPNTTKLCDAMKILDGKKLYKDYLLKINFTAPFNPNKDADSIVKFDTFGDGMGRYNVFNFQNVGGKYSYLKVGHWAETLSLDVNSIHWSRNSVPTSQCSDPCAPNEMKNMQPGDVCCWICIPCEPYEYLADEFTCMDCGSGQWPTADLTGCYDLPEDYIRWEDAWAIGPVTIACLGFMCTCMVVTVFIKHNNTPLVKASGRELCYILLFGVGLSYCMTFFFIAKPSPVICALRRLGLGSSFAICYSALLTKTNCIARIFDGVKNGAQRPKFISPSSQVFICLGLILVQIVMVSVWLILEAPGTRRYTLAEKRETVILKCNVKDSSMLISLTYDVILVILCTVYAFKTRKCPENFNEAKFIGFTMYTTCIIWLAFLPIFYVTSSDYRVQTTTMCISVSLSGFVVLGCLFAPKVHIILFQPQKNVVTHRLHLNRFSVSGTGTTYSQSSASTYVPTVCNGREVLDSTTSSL

SMILES | IC50 [1] | Ki [2] | IC50 [3] | Ki [4] | IC50 [5] | IC50 [6]
Cc1cc(SC[C@@H]2[C@@H](Sc3nc[nH]n3)[C@H]3[C@H](C(=O)O)[C@H]3[C@]2(N)C(=O)O)ccc1F | – | – | 6.6 nM | 5.2 nM | – | –
N[C@]1(C(=O)O)[C@@H]2[C@@H](C(=O)O)[C@@H]2[C@H](O)[C@@H]1CSc1ccccc1 | 2410 nM | 251 nM | – | – | – | –
N[C@]1(C(=O)O)[C@@H]2[C@@H](C(=O)O)[C@@H]2[C@@H](O)[C@@H]1CSc1ccccc1 | 2160 nM | 238 nM | – | – | – | –
Cc1cc(SC[C@@H]2[C@@H](O)[C@H]3[C@H](C(=O)O)[C@H]3[C@]2(N)C(=O)O)ccc1F | – | – | 17.2 nM | 8.9 nM | – | –
N[C@]1(C(=O)O)[C@@H]2[C@@H](C(=O)O)[C@@H]2[C@@H](O)[C@H]1CSc1ccccc1 | 547 nM | 26 nM | – | – | – | –
N[C@@]1(C(=O)O)CC[C@H]2[C@H](C(=O)O)[C@H]21 | – | – | – | – | 7 nM | 27.9 nM

More lines, in order of falling IC50 [1], values ahead:

IC50 [1] | Ki [2] | IC50 [3] | Ki [4] | IC50 [5] | IC50 [6] | SMILES
272 nM | 25.1 nM | 76.2 nM | 43.7 nM | – | – | N[C@]1(C(=O)O)[C@@H]2[C@@H](C(=O)O)[C@@H]2[C@H](O)[C@H]1CSc1cccc(F)c1
202 nM | 19.2 nM | – | – | – | – | N[C@]1(C(=O)O)[C@@H]2[C@@H](C(=O)O)[C@@H]2[C@H](O)[C@H]1CSc1ccccc1
62.3 nM | 16.3 nM | 49.4 nM | 20.5 nM | – | – | N[C@]1(C(=O)O)[C@@H]2[C@@H](C(=O)O)[C@@H]2[C@H](O)[C@H]1CSCc1ccc(Cl)c(Cl)c1
41.9 nM | 6.8 nM | 20.2 nM | 10.4 nM | – | – | N[C@]1(C(=O)O)[C@@H]2[C@@H](C(=O)O)[C@@H]2[C@H](O)[C@H]1CSc1ccc(F)cc1
